From ChEMBL document CHEMBL3044638, “Biological evaluation of imidazole derivatives as inhibitors of hydroperoxide lyase, a key enzyme in plant volatile biosynthesis” (J Pestic Sci, 2011)

The compounds below were run against T1, Fatty acid hydroperoxide lyase, chloroplastic (Solanum lycopersicum, UniProt K4CF70) (assay: Inhibition of recombinant Solanum lycopersicum (tomato) fatty acid 13-hydroperoxide lyase using (13S)-HPOT substrate by spectrophotometry).
T1 sequence (K4CF70 whole entry): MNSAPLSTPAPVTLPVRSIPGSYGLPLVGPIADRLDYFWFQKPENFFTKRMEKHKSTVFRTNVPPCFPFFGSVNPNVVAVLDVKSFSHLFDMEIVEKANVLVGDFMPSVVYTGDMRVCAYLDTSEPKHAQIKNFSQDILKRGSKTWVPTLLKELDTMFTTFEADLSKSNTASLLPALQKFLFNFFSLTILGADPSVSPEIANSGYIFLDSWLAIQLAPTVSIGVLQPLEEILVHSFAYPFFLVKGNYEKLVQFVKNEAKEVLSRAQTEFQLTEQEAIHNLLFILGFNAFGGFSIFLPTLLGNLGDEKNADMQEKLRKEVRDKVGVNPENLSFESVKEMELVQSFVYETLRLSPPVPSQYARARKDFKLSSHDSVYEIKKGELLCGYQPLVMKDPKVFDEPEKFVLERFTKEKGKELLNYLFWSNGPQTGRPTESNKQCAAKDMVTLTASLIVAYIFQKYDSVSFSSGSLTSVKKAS
Clc1ccc(C(Cn2ccnc2)OCc2ccccc2)c(Cl)c1 (centres undefined) was tested, and the IC50 was 39 µM.
Clc1ccc(C(Cn2ccnc2)OCc2ccccc2Cl)c(Cl)c1 (centres undefined) gave an IC50 greater than 100 µM.
For Clc1cccc(COC(Cn2ccnc2)c2ccc(Cl)cc2Cl)c1 (centres undefined), the IC50 was greater than 100 µM.
Clc1ccc(C(Cn2ccnc2)OCc2ccc(Cl)nc2)c(Cl)c1 (centres undefined) showed an IC50 greater than 100 µM.
Clc1ccc(C(Cn2ccnc2)OCc2cccc(Cl)c2Cl)c(Cl)c1 (centres undefined) gave an IC50 of 46 µM.
Compound Clc1ccc(C(Cn2ccnc2)OCc2ccc(Cl)c(Cl)c2)c(Cl)c1 (centres undefined) has an IC50 greater than 100 µM.
With Fc1ccc(COC(Cn2ccnc2)c2ccc(Cl)cc2Cl)c(F)c1 (centres undefined) the IC50 was greater than 100 µM.
With Fc1ccc(F)c(COC(Cn2ccnc2)c2ccc(Cl)cc2Cl)c1 (centres undefined) the IC50 was greater than 100 µM.
Work on Fc1ccc(COC(Cn2ccnc2)c2ccc(Cl)cc2Cl)cc1F (centres undefined) yielded an IC50 greater than 100 µM.
Compound Fc1cc(F)cc(COC(Cn2ccnc2)c2ccc(Cl)cc2Cl)c1 (centres undefined) has an IC50 greater than 100 µM.
Clc1ccc(C(Cn2ccnc2)OCc2c(Cl)cccc2Cl)c(Cl)c1 (centres undefined) [ISOCONAZOLE] gave an IC50 greater than 100 µM.
For Clc1ccc(COC(Cn2ccnc2)c2ccc(Cl)cc2Cl)c(Cl)c1 (centres undefined) [MICONAZOLE], the IC50 was 65 µM.
For CC(Cc1ccc(O)c(O)c1)C(C)Cc1ccc(O)c(O)c1 (centres undefined) [NORDIHYDROGUAIARETIC ACID], the IC50 was 50 µM.

What follows are compounds tested against T1, Fatty acid hydroperoxide lyase, chloroplastic (assay: Binding affinity to recombinant Solanum lycopersicum (tomato) fatty acid 13-hydroperoxide lyase by optical difference spectroscopy).
Clc1ccc(C(Cn2ccnc2)OCc2ccccc2)c(Cl)c1 (centres undefined) gave a Kd of 13.5 µM.
